Experimental data taken from paper PMC2852246 (Journal of nuclear medicine : official publication, Society …, 2010).
Values joined by “and” are separate entries in the source; they are usually repeats but may differ in a detail not shown here. Equal values may be shown once. Read-outs that look alike come from different tables or passages of the source.

What was measured:
[1] = single dose of 10 mg, eight human volunteers; cited from earlier work
[2] = determined by Health Canada; cited from earlier work
[3] = cited from earlier work
[4] = earlier study of 106 subjects referred for potential kidney donation; cited from earlier work
[5] = 106 subjects referred for potential kidney donation; cited from earlier work
[6] = cited from earlier work; remark: listed apart in the source
[7] = Plasma protein binding by ultracentrifugation; assay type: in vitro ADME, human; settings: healthy volunteers, mean ± SD
[8] = Percentage uptake in erythrocytes; assay type: in vitro ADME, human; settings: healthy volunteers, no correction for trapped plasma, mean ± SD
[9] = Percentage injected dose in the urine of healthy volunteers; assay type: in vivo, human
[10] = Renal imaging and renogram parameters; assay type: in vivo, human
[11] = cortical (parenchymal) region of interest, left kidney, n = 9
[12] = cortical (parenchymal) region of interest, right kidney, n = 9
[13] = whole-kidney region of interest, relative uptake, n = 9, mean (SD)

O=C(O)CN(CC(=O)O)CC(=O)O [NTA, Nitrilotriacetic acid]
adverse effects after ingestion [1]: No adverse effects | acceptable daily intake in drinking water [2]: 10 μg/kg of body weight per day

O=C([O-])CN(CCN(CC(=O)[O-])CC(=O)[O-])CCN(CC(=O)[O-])CC(=O)[O-].[99Tc+4] [^99mTc-DTPA, ^99mTc-diethyltriaminepentaacetic acid]
extraction fraction [3]: 20%

O=C([O-])CN=C([O-])CN=C([O-])CN=C([O-])C[S-].[O-2].[Tc+4] [^99mTc-MAG3, ^99mTc-mercaptoacetyltriglycine]
cortical 20 min/max [4]: 0.19 | camera-based clearance [5]: 321 ± 69 mL/min/1.73 m^2 | extraction fraction [3]: 40%-60% | clearance as percentage of the clearance of 131I-OIH [6]: 50%-60% | plasma clearance as percentage of the 131I-OIH clearance ([6]; multiple studies): 50–60%

O=C(O)CNC(=O)c1ccccc1[131I] [^131I-OIH, ^131I ortho-iodohippuran]
plasma protein binding [7]: 75 ± 3% | red cell uptake [8]: 17 ± 5% | percent injected dose in the urine at 30 min ([9]; 30 min after injection): 69 ± 11% | percent injected dose in the urine at 180 min (3 h) ([9]; 180 min after injection): 91 ± 6% | Left cortical TTP [10, 11]: 2.46 ± 0.73 min | Left cortical TTP (min) [10, 11]: 2.46 (0.73) min | Right cortical TTP [10, 12]: 1.98 ± 0.60 min | Right cortical TTP (min) [10, 12]: 1.98 (0.6) min | cortical 20 min/max ([10]; healthy volunteers, kidney side not specified): 0.10 | Left kidney 20 min/max ([10]; whole-kidney region of interest, 20 min-to-maximum count ratio, n = 9, mean (SD)): 0.11 (0.03) | Right kidney TTP (min) ([10]; whole-kidney region of interest, n = 9, mean (SD)): 2.8 (1.6) min | Left kidney Uptake % [10, 13]: 49.0 ± 4.1% and 49.0 (4.1) % | Right kidney Uptake % [10, 13]: 51.0 (4.1) % | Left kidney TTP (min) ([10]; whole-kidney region of interest, time to peak of renogram, n = 9, mean (SD)): 2.6 (0.6) min | mean plasma clearance ([6]; earlier study of healthy volunteers): 530 mL/min
